Values quoted from earlier work as cited in patent publication US20230381197A1, “COMPOSITIONS FOR NON-SURGICAL PREVENTION OF BOAR TAINT AND […]” (Insigna Inc., priority 2022, published 2023).

Tested on: Sertoli cells
Settings: young male pigs

Row | SMILES | duration of Sertoli cell proliferation and testis size
1 | N#Cc1ccc(C(c2ccc(C#N)cc2)n2cncn2)cc1 [Letrozole] | highly significant increase
2 | C[C@]12CC[C@@H]3c4ccc(O)cc4C[C@@H](CCCCCCCCC[S+]([O-])CCCC(F)(F)C(F)(F)F)[C@H]3[C@@H]1CC[C@@H]2O (some centres unmarked) [ICI 182,780] | highly significant increase
